Results on four molecules are retold here after US10065990B2, “Cyclic peptide compound, and preparation method, pharmaceutical composition and use thereof” (HANGZHOU GUANYU BIO-MEDICAL CO., LTD, priority 2013, dated 2018).

For one assay, the target named is T1, HDAC7 (Homo sapiens, UniProt Q8WUI4).
T1 sequence (Q8WUI4 1-952): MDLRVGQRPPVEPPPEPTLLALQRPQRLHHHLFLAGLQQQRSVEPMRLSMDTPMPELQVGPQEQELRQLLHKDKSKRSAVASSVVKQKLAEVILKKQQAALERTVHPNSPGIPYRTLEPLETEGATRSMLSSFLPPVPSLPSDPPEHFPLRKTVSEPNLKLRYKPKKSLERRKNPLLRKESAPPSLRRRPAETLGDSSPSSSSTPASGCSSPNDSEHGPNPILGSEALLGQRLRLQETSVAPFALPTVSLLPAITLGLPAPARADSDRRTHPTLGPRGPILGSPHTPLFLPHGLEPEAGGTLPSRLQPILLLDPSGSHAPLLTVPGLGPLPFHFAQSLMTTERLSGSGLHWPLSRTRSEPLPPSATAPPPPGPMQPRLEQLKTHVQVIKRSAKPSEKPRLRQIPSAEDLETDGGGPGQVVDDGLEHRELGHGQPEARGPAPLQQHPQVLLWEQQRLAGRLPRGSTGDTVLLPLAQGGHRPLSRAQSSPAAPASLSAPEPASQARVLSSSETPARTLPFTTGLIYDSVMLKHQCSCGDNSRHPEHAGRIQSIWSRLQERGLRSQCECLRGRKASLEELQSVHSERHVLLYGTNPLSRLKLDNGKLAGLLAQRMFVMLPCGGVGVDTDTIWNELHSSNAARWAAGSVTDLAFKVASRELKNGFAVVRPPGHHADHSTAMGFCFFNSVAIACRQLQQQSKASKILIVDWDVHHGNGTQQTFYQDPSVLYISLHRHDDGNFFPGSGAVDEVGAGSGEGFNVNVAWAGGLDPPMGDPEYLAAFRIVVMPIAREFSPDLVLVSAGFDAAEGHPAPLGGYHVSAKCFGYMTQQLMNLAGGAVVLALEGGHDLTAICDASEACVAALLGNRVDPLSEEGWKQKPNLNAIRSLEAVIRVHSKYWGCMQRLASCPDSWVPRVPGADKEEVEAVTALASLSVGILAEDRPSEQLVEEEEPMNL
Nature of the assay: HDAC biochemical activity measurement (fluorescent substrate deacetylation).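 Also: fluorogenic deacetylation assay using acetyl-lysine substrate at 20 µM, enzyme and compound incubated 30 min at 37 °C, then developer added, fluorescence read at 360/460 nm.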 Conditions: HDAC7; 37° C. 30 minutes.

Assay [1] deals with A549 (human lung cancer cells). Nature of the assay: MTT cancer cell growth inhibition. The format is cell-based. Conditions: Homo sapiens, A549, 72 h, MTT, 72 hours incubation, read-out: GI50 A54. In outline: (§1)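 GI50 values come from MTT viability: after 72 h compound exposure (final 10^−5–10^−10 M, three wells each) of cells plated overnight at 1500/well in 10% FBS medium, MTT was given for 4 h. The DMSO-solubilised formazan was then measured at 570 nm.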

Assay [2] has as its system BGC-823 (human gastric cancer cells). Nature of the assay: MTT cancer cell growth inhibition. The format is cell-based. Conditions: Homo sapiens, BGC-823, 72 h, MTT, 72 hours incubation, read-out: GI50 BG. The method in brief: as §1
The test system of assay [3] is Bel-7402 (human hepatoma cells). As to the kind of experiment: MTT cancer cell growth inhibition. Conditions: Homo sapiens, Bel-7402, 72 h, MTT, 72 hours incubation, Bel-7402 cells; read-out: GI50 Bel-7402. It is filed as cell-based. The method in brief: as §1
Assay [4] relates to DU145 (human prostate cancer cells). Nature of the assay: MTT cancer cell growth inhibition. The format is cell-based. Conditions: Homo sapiens, DU-145, 72 h, MTT, 72 hours incubation, read-out: GI50 Du1. The method in brief: as §1
The test system of assay [5] is H1975 (non-small cell lung adenocarcinoma). As to the kind of experiment: MTT cancer cell growth inhibition. It is filed as cell-based. Conditions: Homo sapiens, NCI-H1975, 72 h, MTT, 72 hours incubation, H1975 cells; read-out: GI50 H1975. The method in brief:
as §1

Assay [6] deals with HCC827 (human non-small cell lung cancer cells). Nature of the assay: MTT cancer cell growth inhibition. It is filed as cell-based. Conditions: Homo sapiens, HCC827, 72 h, MTT, 72 hours incubation, HCC827 cells; read-out: GI50 HCC827. The method in brief:
as §1

The test system of assay [7] is HT1080 (human fibrosarcoma cells). Nature of the assay: MTT cancer cell growth inhibition. The format is cell-based. Conditions: Homo sapiens, HT-1080, 72 h, MTT, 72 hours incubation, read-out: GI50 HT1. In outline: as §1
In assay [8] the test system is Hela (human cervical cancer cells). Nature of the assay: MTT cancer cell growth inhibition. It is filed as cell-based. Conditions: Homo sapiens, HeLa, 72 h, MTT, 72 hours incubation, read-out: GI50 Hela. The method in brief:
as §1

Assay [9] has as its system Huh-7 (human hepatoma cells). Nature of the assay: MTT cancer cell growth inhibition. It is filed as cell-based. Conditions: Homo sapiens, Huh-7, 72 h, MTT, 72 hours incubation, Huh-7 cells; read-out: GI50 Huh-7. The method in brief: as §1
In assay [10] the test system is K562 (human leukemia cells). Nature of the assay: MTT cancer cell growth inhibition. The format is cell-based. Conditions: Homo sapiens, K562, 72 h, MTT, 72 hours incubation, K562 cells; read-out: GI50 K562. The method in brief:
as §1

Assay [11] relates to KBM-5 (human chronic myelogenous leukemia). Nature of the assay: MTT cancer cell growth inhibition. It is filed as cell-based. Conditions: Homo sapiens, KBM5, 72 h, MTT, 72 hours incubation, KBM-5 cells; read-out: GI50 KBM-5. In outline:
as §1

Assay [12] deals with KBM5-T315I (human chronic myelogenous leukemia). Nature of the assay: MTT cancer cell growth inhibition. The format is cell-based. Conditions: Homo sapiens, 72 h, MTT, 72 hours incubation, KBM5-T315I cells; read-out: GI50 KBM5-T315I. The method in brief:
as §1

In assay [13] the test system is MCF-7 (human breast cancer cells). Nature of the assay: MTT cancer cell growth inhibition. Conditions: Homo sapiens, MCF7, 72 h, 72 hours incubation, read-out: GI50 MCF. The format is cell-based. In outline: as §1
For assay [14], the system named is MDA-MB-231 (breast cancer cells). Nature of the assay: MTT cancer cell growth inhibition. It is filed as cell-based. Conditions: Homo sapiens, MDA-MB-231, 72 h, read-out: GI50 MDA-MB-231, MTT, 72 hours incubation, MDA-MB-231 cells. In outline: as §1
Assay [15] has as its system MOLT-4 (human acute lymphoblastic leukemia cells). As to the kind of experiment: MTT cancer cell growth inhibition. It is filed as cell-based. Conditions: Homo sapiens, MOLT-4, 72 h, MTT, 72 hours incubation, read-out: GI50 Mol. The method in brief:
as §1

Assay [16] concerns N-87 (human gastric cancer cells). As to the kind of experiment: MTT cancer cell growth inhibition. It is filed as cell-based. Conditions: Homo sapiens, 72 h, MTT, 72 hours incubation, N-87 cells; read-out: GI50 N-87. In outline:
as §1

Assay [17] concerns PANC-1 (Pac-1, human pancreatic cancer cells). Nature of the assay: MTT cancer cell growth inhibition. It is filed as cell-based. Conditions: Homo sapiens, PANC-1, 72 h, MTT, 72 hours incubation, read-out: GI50 PAN. The method in brief: as §1
Assay [18] deals with SGC-7901 (human gastric cancer cells). Nature of the assay: MTT cancer cell growth inhibition. Conditions: Homo sapiens, SGC-7901, 72 h, MTT, 72 hours incubation, SGC-7901 cells; read-out: GI50 SGC-7901. The format is cell-based. The method in brief: as §1
Assay [19] deals with U937 (human leukemia cells). Nature of the assay: MTT cancer cell growth inhibition. The format is cell-based. Conditions: Homo sapiens, U-937, 72 h, MTT, 72 hours incubation, read-out: GI50 U93. In outline: as §1
In assay [20] the test system is lncap (prostate cancer cells). As to the kind of experiment: MTT cancer cell growth inhibition. It is filed as cell-based. Conditions: Homo sapiens, LNCaP, 72 h, MTT, 72 hours incubation, read-out: GI50 lnca. In outline: as §1

SMILES strings stand for the structures. Where two headings read alike, the source gives them in different places.

As for `C/C=C1\NC(=O)c2nc(ccc2F)CNC(=O)C[C@@H](/C=C/CCSC(=O)CCCCCCC)OC(=O)[C@H](Cc2ccccc2)NC1=O` [Example 69], on HDAC7, the “IC50 HDAC7” value is given as “no activity”. For the same molecule, the GI50 in [1] is 30 nM; in [2], 50 nM; in [3], 74 nM; in assay [4], 40 nM; in assay [5], 43 nM; in assay [6], 74 nM. For the same molecule, the GI50 in assay [7] was determined as 70 nM; in assay [8], 80 nM; in [9], 35 nM; in [10], 41 nM; in assay [11], 81 nM; in assay [12] it was 29 nM. Further, the GI50 in assay [13] came out at 20 nM; in assay [14], 35 nM; in assay [15], 30 nM; in assay [16], 52 nM; in assay [17], 70 nM; in assay [18], 36 nM. For the same molecule, the values for the GI50 in [19] and in [20] were 40 nM and 30 nM, respectively.

Take `C=C1NC(=O)c2cccc(n2)CNC(=O)C[C@@H](/C=C/CCSC(C)=O)OC(=O)[C@H](C)NC1=O` [Example 21]: the “IC50 HDAC7” value at HDAC7 is “no activity”. In addition, the 50% growth inhibitory concentration (GI50) in assay [1] worked out at 330 nM; in assay [2] it was 870 nM; in [3], 83 nM; in [4] it was 990 nM; in assay [5], 37 nM; in assay [6], 34 nM. Further, the concentration for 50% growth inhibition (GI50) in [7] was 1050 nM; in assay [8], 400 nM; in [9], 84 nM; in assay [10], 25 nM; in assay [11], 73 nM; in assay [12] it was 27 nM. Also, the GI50 in assay [13] came out at 100 nM; in assay [14], 98 nM; in [15], 1010 nM; in assay [16], 35 nM; in [17], 1170 nM; in assay [18], 24 nM. Further, the 50% growth inhibitory concentration (GI50) in assay [19] came to 5110 nM; in [20], 1210 nM.

Turning to `C/C=C1\NC(=O)c2cc(SC)cc(n2)CNC(=O)C[C@@H](/C=C/CCSC(=O)CCCCCCC)OC(=O)[C@H](CC)NC1=O` [Compound 172], on HDAC7, the “IC50 HDAC7” value is recorded as “no activity”. Also, the GI50 turned out to be 30 nM in [1] (A549 cells); 60 nM in assay [2] (BGC-823 cells); 73 nM in [3]; 40 nM in [4] (DU145 cells); 45 nM in assay [5]; 32 nM in assay [6]. For the same molecule, the 50% growth inhibitory concentration (GI50) was determined as 60 nM in [7] (HT1080 cells); 50 nM in assay [8] (Hela cells); 23 nM in assay [9]; 26 nM in [10]; 35 nM in assay [11]; 41 nM in assay [12]. In addition, the concentration for 50% growth inhibition (GI50) came to 60 nM in assay [13] (MCF-7 cells); 78 nM in assay [14]; 20 nM in assay [15] (MOLT-4 cells); 84 nM in [16]; 80 nM in [17] (PANC-1 cells); 31 nM in [18]. Also, the figures for the GI50 in assay [19] (U937 cells) and in assay [20] (lncap cells) were 40 nM and 20 nM, respectively.

In the case of `C/C=C1\NC(=O)c2ccc(F)c(n2)CNC(=O)C[C@@H](/C=C/CCSC(C)=O)OC(=O)[C@H](CC)NC1=O` [Example 59], the “IC50 HDAC7” value at HDAC7 is “no activity”. In addition, the 50% growth inhibitory concentration (GI50) was found to be 50 nM in [1]; 50 nM in assay [2]; 82 nM in [3]; 30 nM in [4]; 39 nM in assay [5]; 82 nM in assay [6]. For the same molecule, the 50% growth inhibitory concentration (GI50) in [7] is 80 nM; in [8] it was 60 nM; in assay [9] it was 37 nM; in [10], 38 nM; in assay [11], 61 nM; in assay [12], 74 nM. In addition, the GI50 came to 70 nM in [13]; 37 nM in assay [14]; 30 nM in assay [15]; 59 nM in assay [16]; 80 nM in assay [17]; 59 nM in assay [18]. For the same molecule, the 50% growth inhibitory concentration (GI50) in [19] and in assay [20] was 30 nM throughout.

What is called GI50 is the concentration that inhibits growth by half.
